# Patent publication US5264420A, “Fibrinogen receptor antagonists” (Merck & Co., Inc., priority 1992, dated 1993)
# Tested on: blood platelets
# Experiment: Inhibition of platelet aggregation
# Type: cell-based
row,IC50,Compound
1,1.1 µM,"Cc1[nH]c2ccccc2c1CCC(CC(=O)O)NC(=O)CNC(=O)CCCC1CCNCC1 (stereo not drawn) [(14), Pib-Gly-3-[2-(2-methylindol-3-yl)ethyl]β-alanine]"
2,> 1 µM,"CCOC(=O)C[C@H](CCc1c[nH]c2ccccc12)NC(=O)CNC(=O)CCCC1CCNCC1 [(5), Pib-Gly-3(S)-[2-(indol-3-yl)ethyl]-β-alanine ethyl ester]"
3,0.087 µM,"O=C(O)C[C@@H](CCc1ccccc1)NC(=O)CN(CCc1ccccc1)C(=O)CCCC1CCNCC1 [(4), Pib-N-(2-phenethyl)Gly-3(R)-(2-phenethyl)-β-alanine]"
4,0.077 µM,"CCCCN(CC(=O)N[C@H](CCc1ccccc1)CC(=O)O)C(=O)CCCC1CCNCC1 [(2), Pib-N-(n-butyl)Gly-3(R)-(2-phenethyl)-β-alanine]"
5,2.1 µM,"O=C(O)CC(COc1ccccc1)NC(=O)CNC(=O)CCCC1CCNCC1 (stereo not drawn) [(10), Pib-Gly-3-(phenoxymethyl)β-alanine]"
6,1.5 µM,"O=C(O)CC(CCc1cncn1Cc1ccccc1)NC(=O)CNC(=O)CCCC1CCNCC1 (stereo not drawn) [(12), Pib-Gly-3-[2-(3-benzylimidazol-4-yl)ethyl]β-alanine]"
7,> 300 µM,CC(CCc1ccccc1)(CC(=O)O)NC(=O)CNC(=O)CCCC1CCNCC1 (centres unmarked) [(7)]
8,0.25 µM,"O=C(O)C[C@@H](CCc1ccccc1)NC(=O)CN(Cc1ccccc1)C(=O)CCCC1CCNCC1 [(1), Pib-N-(benzyl)Gly-3(R)-(2-phenethyl)-β-alanine]"
9,31 µM,"O=C(O)C[C@H](CCc1c[nH]c2ccccc12)NC(=O)CNC(=O)CCCC1CCNCC1 [(6), Pib-Gly-3(S)-[2-(indol-3-yl)ethyl]β-alanine]"
10,3.7 µM,"O=C(O)CC(CCCCO)NC(=O)CNC(=O)CCCC1CCNCC1 (stereo not drawn) [(9), Pib-Gly-3-[4-(hydroxy)butyl],β-alanine]"
11,4 µM,Pib-Gly-3-(3-carboxypropyl)β-alanine [(13)]
12,0.099 µM,"CC(C)N(C(=O)CCCC1CCNCC1)[C@H](CCc1ccccc1)CC(=O)O [(3), Pib-N-(i-Propyl)-3(R)-(2-phenethyl)-β-alanine]"
13,> 1 µM,"O=C(O)CC(CCO)NC(=O)CNC(=O)CCCC1CCNCC1 (stereo not drawn) [(8), Pib-Gly-3-[2-(hydroxy)ethyl]β-alanine]"
14,2.7 µM,"O=C(O)CC(CCc1c[nH]cn1)NC(=O)CNC(=O)CCCC1CCNCC1 (stereo not drawn) [(11), Pib-Gly-3-[2-(imidazol-4-yl)ethyl]β-alanine]"
